The numbers were not newly measured in US12370233B2, “Depot systems comprising glatiramer acetate” (MAPI PHARMA LTD., priority 2016, dated 2025), which cites them from elsewhere.

The conditions of this data set: as reported by Rotstein et al., JAMA Neurol., 2015.

On to natalizumab [TYSABRI®], for which the “NEDA at one year” value was 47%. With daclizumab [ZINBRYTA®], the “NEDA at one year” value was 39%.
